Assay results reported in US5369095A, “Compositions and method comprising substituted glycosides as mucus membrane permeation enhancers” (priority 1993, dated 1994).

Experiments:
[1] = Apparent permeability coefficient through excised cornea mounted between diffusion cells; type: in vitro ADME, Albino rabbits
Experimental: Albino rabbits were sacrificed, and within 15 minutes, the corneas were mounted and clamped between diffusion cells according to the published procedure by Schoenwald et al. (J. Pharm. Sci. 72, 1266, 1983). 7 ml of bicarbonated Ringer's solution containing reduced glutathione was added to the endothelial side to serve as the receiver solution. An equal volume of the same solution containing Atenolol, a β-blocker, with or without dodecyl maltoside (DDM) was added to the epithelial side to serve as the donor solution. The apparent permeability coefficient was calculated from the average cumulative amount of drug penetrating through the cornea over time according to Schoenwald.
The procedure in Example 8 was repeated with the following para-amino clonidine formulations.
The procedure of Example 8 was repeated with Atenolol except dodecyl maltoside was substituted with 0.1% amount by weight of each of the following substituted glycosides of this invention and the following results were obtained.

[2] = Penetration of para-aminoclonidine through the cornea: amount in aqueous humor after topical dosing, liquid scintillation counting; type: in vivo, New Zealand albino rabbits; conditions: 60 minutes; 0.125% para-amino-clonidine with 0.05% dodecyl maltoside versus drug without dodecyl maltoside; 30 ul topical
Experimental: Nine New Zealand albino rabbits were selected for evaluation of the penetration through the cornea of the para-amino-clonidine formulation set forth above. All rabbits received 30 ul of the 0.125% para-amino-clonidinetopically in both eyes. Three rabbits were sacrificed at 20 minutes from dosing and aqueous humor was withdrawn from their eyes. The aqueous humor as assayed by liquid scintillation counting to determine the amount of para-amino-clonidine in the aqueous humor. The same procedure was done on 3 different rabbits at 60 minutes from dosing and on another 3 rabbits, 120 minutes from dosing. […] Aqueous humor was withdrawn and assayed as explained above.
Nine New Zealand albino rabbits were selected for evaluation of the penetration through the cornea of the para-amino-clonidine formulation set forth above. All rabbits received 30 ul of the 0.125% para-amino-clonidinetopically in both eyes. Three rabbits were sacrificed at 20 minutes from dosing and their aqueous humor was withdrawn from their eyes. The aqueous humor was assayed by liquid scintillation counting to determine the amount of para-amino-clonidine in the aqueous humor. The same procedure was done on three different rabbits at 60 minutes from dosing and on another three rabbits, 120 minutes from dosing. […] Aqueous humor was withdrawn and assayed as explained above.

Molecule | permeation for para-amino clonidine as compared to control [1] | increase in the amount of para-aminoclonidine found in the aqueous humor [2] | Permeability Coefficient ([1]; rabbit) [cm/sec × 10^-6]
CCCCCCCCCCCCO[C@@H]1O[C@H](CO)[C@@H](O[C@H]2O[C@H](CO)[C@@H](O)[C@H](O)[C@H]2O)[C@H](O)[C@H]1O [dodecyl maltoside, Dodecyl maltoside] | superior permeation | four | –
Lysophosphatidyl Inositol | – | – | 14.0
